Where “and” joins values, the source holds several entries; their conditions need not be identical. Equal entries are not always repeated.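 Interpolation was linear, between the two tested concentrations surrounding the appropriate level; five concentrations were tested over 48 hours in 96-well plates. GI50 marks 50% less growth.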 Calls of active or inactive are those of the source. No stated cut-off is given here; in the data, active = GI50 up to about 1.1 µM and inactive = higher.
Key:
Experiment in all cases: DTP human tumour cell line panel, 48 h
SF-268 = system: SF-268
HCT-15 = system: HCT-15
A498 = system: A498
SK-MEL-5 = system: SK-MEL-5
A549 = system: A549
SW-620 = system: SW-620
CCRF-CEM = system: CCRF-CEM
HOP-92 = system: HOP-92
EKVX = system: EKVX
UACC-257 = system: UACC-257
SK-MEL-28 = system: SK-MEL-28
HT-29 = system: HT-29
SF-539 = system: SF-539
COLO 205 = system: COLO 205
M14 = system: M14

Cc1ccccc1/N=N/c1c(-c2ccccc2)nn(C(=O)CC(=O)Nc2cccc(Cl)c2)c1-c1ccccc1
GI50 (SF-268): 24 µM (inactive)
GI50 (HCT-15): 16.9 µM
GI50 (A498): 19 µM (inactive)
GI50 (SK-MEL-5): 15.8 µM (inactive)
GI50 (A549): > 10 µM (inactive)
GI50 (SW-620): 3.16 µM (inactive)
GI50 (CCRF-CEM): 15.8 µM (inactive)
GI50 (HOP-92): 26.3 µM (inactive)
GI50 (EKVX): 28.4 µM (inactive)
GI50 (UACC-257): 0.247 µM (active)
GI50 (SK-MEL-28): > 31.5 µM (inactive)
GI50 (HT-29): 15.3 µM (inactive)
GI50 (SF-539): 24.2 µM (inactive)
GI50 (COLO 205): 14.9 µM (inactive)
GI50 (M14): 22.1 µM (inactive)

Cc1cc2c(c(C#N)c1C)NC(=O)CCC2=O
GI50 (HCT-15): > 100 µM
GI50 (A498): > 100 µM (inactive)
GI50 (A549): > 100 µM (inactive)
GI50 (SW-620): > 100 µM (inactive)
GI50 (CCRF-CEM): > 100 µM (inactive)
GI50 (EKVX): > 100 µM (inactive)
GI50 (UACC-257): > 100 µM (inactive)
GI50 (SK-MEL-28): > 100 µM (inactive)
GI50 (HT-29): > 100 µM (inactive)
GI50 (SF-539): > 100 µM (inactive)
GI50 (COLO 205): > 100 µM (inactive)
GI50 (M14): > 100 µM (inactive)

COc1ccc(-c2cc(-c3ccco3)c(C#N)c(=O)n2C2OC(OC(=O)c3ccccc3)C(OC(=O)c3ccccc3)C2OC(=O)c2ccccc2)cc1 (configuration not stated)
GI50 (SF-268): > 10 µM (inactive)
GI50 (HCT-15): > 100 µM
GI50 (A498): > 100 µM (inactive)
GI50 (SK-MEL-5): > 100 µM (inactive)
GI50 (SW-620): > 100 µM (inactive)
GI50 (CCRF-CEM): > 100 µM (inactive)
GI50 (HOP-92): 23.9 µM (inactive)
GI50 (EKVX): > 100 µM (inactive)
GI50 (UACC-257): > 100 µM (inactive)
GI50 (SK-MEL-28): > 100 µM (inactive)
GI50 (HT-29): > 100 µM (inactive)
GI50 (SF-539): > 100 µM (inactive)
GI50 (COLO 205): > 100 µM (inactive)
GI50 (M14): > 100 µM (inactive)

C=CC1(C(=O)O)CCC(C(C)(C)C)CC1 (configuration not stated)
GI50 (SF-268): > 100 µM (inactive)
GI50 (HCT-15): > 100 µM
GI50 (A498): > 100 µM (inactive)
GI50 (SK-MEL-5): > 100 µM (inactive)
GI50 (A549): > 100 µM (inactive)
GI50 (SW-620): > 100 µM (inactive)
GI50 (HOP-92): > 100 µM (inactive)
GI50 (EKVX): > 100 µM (inactive)
GI50 (UACC-257): > 100 µM (inactive)
GI50 (HT-29): > 100 µM (inactive)
GI50 (SF-539): > 100 µM (inactive)
GI50 (COLO 205): > 100 µM (inactive)
GI50 (M14): > 100 µM (inactive)

CC(=O)OCC12CC(CC1OC(C)=O)c1ccccc12 (configuration not stated)
GI50 (SF-268): > 100 µM (inactive)
GI50 (HCT-15): > 100 µM
GI50 (A498): > 100 µM (inactive)
GI50 (SK-MEL-5): > 100 µM (inactive)
GI50 (A549): > 100 µM (inactive)
GI50 (SW-620): > 100 µM (inactive)
GI50 (CCRF-CEM): > 100 µM (inactive)
GI50 (HOP-92): > 100 µM (inactive)
GI50 (UACC-257): > 100 µM (inactive)
GI50 (SK-MEL-28): > 100 µM (inactive)
GI50 (HT-29): > 100 µM (inactive)
GI50 (COLO 205): > 100 µM (inactive)
GI50 (M14): > 100 µM (inactive)

COc1cc2c(Cc3cc(OCc4ccccc4)ccc3N)nccc2c(OC)c1OC
GI50 (SF-268): > 10 µM (inactive)
GI50 (HCT-15): > 10 µM
GI50 (SK-MEL-5): > 10 µM (inactive)
GI50 (A549): > 10 µM (inactive)
GI50 (SW-620): > 10 µM (inactive)
GI50 (CCRF-CEM): > 10 µM (inactive)
GI50 (HOP-92): > 10 µM (inactive)
GI50 (EKVX): > 10 µM (inactive)
GI50 (UACC-257): > 10 µM (inactive)
GI50 (SK-MEL-28): > 10 µM (inactive)
GI50 (HT-29): > 10 µM (inactive)
GI50 (SF-539): > 10 µM (inactive)
GI50 (COLO 205): > 10 µM (inactive)
GI50 (M14): > 10 µM (inactive)

N#CC(c1ccccc1)c1nc2ccc(N)cc2[n+]([O-])c1C(C#N)c1ccccc1 (configuration not stated)
GI50 (SF-268): > 100 µM (inactive)
GI50 (HCT-15): 46 µM
GI50 (A498): > 100 µM (inactive)
GI50 (SK-MEL-5): 1 µM (active)
GI50 (A549): 57.8 µM (inactive)
GI50 (SW-620): 57.4 µM (inactive)
GI50 (CCRF-CEM): 46.6 µM (inactive)
GI50 (EKVX): > 100 µM (inactive)
GI50 (UACC-257): > 100 µM (inactive)
GI50 (SK-MEL-28): > 100 µM (inactive)
GI50 (HT-29): 58.7 µM (inactive)
GI50 (SF-539): > 100 µM (inactive)
GI50 (COLO 205): 76.4 µM (inactive)
GI50 (M14): 86.7 µM (inactive)

C[C@@H]1CC[C@@]2(C)OC(c3ccccc3)[C@H](CO)N2C1=O (some centres not stated)
GI50 (SF-268): > 100 µM (inactive)
GI50 (HCT-15): > 100 µM
GI50 (A498): > 100 µM (inactive)
GI50 (SK-MEL-5): > 100 µM (inactive)
GI50 (A549): > 100 µM (inactive)
GI50 (SW-620): > 100 µM (inactive)
GI50 (HOP-92): > 100 µM (inactive)
GI50 (EKVX): > 100 µM (inactive)
GI50 (UACC-257): > 100 µM (inactive)
GI50 (SK-MEL-28): > 100 µM (inactive)
GI50 (HT-29): > 100 µM (inactive)
GI50 (SF-539): > 100 µM (inactive)
GI50 (COLO 205): > 100 µM (inactive)

O=c1ncccn1[C@@H]1O[C@H](CO)[C@@H](O)[C@@H]1F
GI50 (SF-268): > 100 µM (inactive)
GI50 (A498): > 100 µM (inactive)
GI50 (SK-MEL-5): > 100 µM (inactive)
GI50 (A549): > 100 µM (inactive)
GI50 (HOP-92): > 100 µM (inactive)
GI50 (EKVX): > 100 µM (inactive)
GI50 (UACC-257): > 100 µM (inactive)
GI50 (SK-MEL-28): > 64 µM (inactive)
GI50 (HT-29): > 100 µM (inactive) and > 61.9 µM (inactive)
GI50 (COLO 205): > 100 µM (inactive)
GI50 (M14): > 100 µM (inactive)

CCOC(=O)C(Cc1cn(S(=O)(=O)c2ccccc2)c2ccccc12)(NC(C)=O)C(=O)OCC
GI50 (SF-268): 40 µM (inactive)
GI50 (HCT-15): 42.5 µM
GI50 (SK-MEL-5): 15.8 µM (inactive)
GI50 (A549): 36.2 µM (inactive)
GI50 (SW-620): 54.2 µM (inactive)
GI50 (CCRF-CEM): 25.1 µM (inactive)
GI50 (HOP-92): 19.8 µM (inactive)
GI50 (UACC-257): 24.5 µM (inactive)
GI50 (SK-MEL-28): 42.6 µM (inactive)
GI50 (HT-29): 58.5 µM (inactive)
GI50 (SF-539): 30.3 µM (inactive)
GI50 (COLO 205): 25 µM (inactive)
GI50 (M14): 32.1 µM (inactive)

— ChEMBL document CHEMBL1201862, “PubChem BioAssay data set” (2004)
